Experimental data published in patent publication US9079970B2, “Methods and compositions for specific modulation of MCL-1” (Dana Farber Cancer Institute, Inc., priority 2008, dated 2015).
Where a SMILES comes first, the peptide text is derived from it. Bridges are numbered along the chain shown (N, C = ends). [ ]: non-standard residue; d: D form. S5 = C=CCCC[C@](C)(N)C(=O)O; Nle = CCCC[C@H](N)C(=O)O

Biological target: recombinant BCL-XLΔC (Homo sapiens, UniProt Q07817)
Test: Fluorescence polarization direct binding of FITC-SAHBs to BCL-XLΔC
Conditions: FPA
Procedure: Binding assays were performed as previously described (Pitter et al., Methods Enzymol 446, 387 (2008). Briefly, FITC-SAHB (50 nM) was added to serial dilutions of FPLC-purified recombinant protein in binding buffer (50 mM Tris, 100 mM NaCl, pH 8.0). For competition assays, serial dilutions of acetylated MCL-1 SAHBs were mixed with FITC-BAK SAHB (25 nM), followed by addition of MCL-1ΔNΔC (100 nM) diluted in binding buffer (50 mM Tris, 100 mM NaCl, pH 8.0). Multiwell plates were incubated in the dark at room temperature until equilibrium was reached and fluorescence polarization (mP units) was measured by microplate reader (SpectraMax, Molecular Devices). For direct binding experiments, dissociation constants (KD) were calculated by nonlinear regression analysis of dose-response curves using Prism software (Graphpad). For competition experiments, Ki values were determined by nonlinear regression analysis of dose-response curves using a one-site competition model.
Recombinant carboxy-terminal deleted anti-apoptotic proteins were expressed using the pGEX-4T vector, and purified as described for rMCL-1. The purified proteins were incubated with FITC-SAHBs, and binding affinities were analyzed by fluorescence polarization assay as described above. […] Optionally, design and optimization of tailored SAHB compounds for anti-apoptotic targeting also employed computational modeling.

Sequence of recombinant BCL-XLΔC (Q07817 1-209, stated change not applied): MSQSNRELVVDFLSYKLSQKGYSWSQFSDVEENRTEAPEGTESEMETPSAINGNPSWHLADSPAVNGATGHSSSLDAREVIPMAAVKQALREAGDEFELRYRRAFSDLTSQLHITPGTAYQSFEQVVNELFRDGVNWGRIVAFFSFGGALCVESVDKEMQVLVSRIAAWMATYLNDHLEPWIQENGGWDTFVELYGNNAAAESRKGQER

Row | Structure (SMILES) | BCL-XL binding
1 | CC[C@H](C)[C@@H]1NC(=O)[C@@](C)(NC(=O)[C@H](CCCCN)NC(=O)[C@H](CC(C)C)NC(=O)[C@H](CO)NC(=O)[C@H](CCC(=O)O)NC(=O)[C@H](CO)NC(=O)[C@H](CC(C)C)NC(=O)[C@H](CCCCN)NC(=O)[C@H](CCCCN)NC(=O)[C@@H](NC(=O)[C@H](CO)NC(=O)[C@H](C)N)[C@@H](C)O)CCCC=CCCC[C@@](C)(C(=O)N[C@@H](CC(C)C)C(=O)N[C@@H](CC(=O)O)C(=O)N[C@@H](CO)C(=O)N[C@@H](CC(N)=O)C(N)=O)NC(=O)[C@H](CC(=O)O)NC(=O)CNC1=O [BAX SAHB] (H-ASTKKLSESLK[S5]IGD[S5]LDSN-NH2; staple 12-16; C-terminus assumed) | eliminated
2 | CCCC[C@H](NC(=O)[C@]1(C)CCCC=CCCC[C@](C)(NC(=O)[C@H](C)NC(=O)[C@H](CC(C)C)NC(=O)[C@H](Cc2c[nH]cn2)NC(=O)[C@H](CCCNC(=N)N)NC(=O)[C@H](C)NC(=O)[C@@H](NC(=O)[C@H](CC(N)=O)NC(=O)[C@H](CCCNC(=N)N)NC(=O)[C@@H](NC(=O)[C@@H](NC(=O)[C@@H](N)CC(=O)O)[C@@H](C)CC)[C@@H](C)CC)[C@@H](C)CC)C(=O)N[C@@H](C(C)C)C(=O)NCC(=O)N[C@@H](CC(=O)O)C(=O)N1)C(=O)N[C@@H](CC(=O)O)C(=O)N[C@@H](CCCNC(=N)N)C(=O)N[C@@H](CO)C(=O)N[C@H](C(=O)N[C@@H](CCCNC(=N)N)C(=O)N[C@@H](CCCNC(=N)N)C(N)=O)[C@@H](C)CC [BID SAHB] (H-DIIRNIARHLA[S5]VGD[S5][Nle]DRSIRR-NH2; staple 12-16; C-terminus assumed) | eliminated
3 | CCCC[C@@H]1NC(=O)[C@@](C)(NC(=O)[C@H](CCCNC(=N)N)NC(=O)[C@H](CC(C)C)NC(=O)[C@H](CCC(N)=O)NC(=O)[C@H](C)NC(=O)CNC(=O)[C@@H](NC(=O)[C@H](CCC(=O)O)NC(=O)[C@H](CCCNC(=N)N)NC(=O)[C@H](C)NC(=O)[C@H](Cc2c[nH]c3ccccc23)NC(=O)[C@@H](N)CCC(N)=O)[C@@H](C)CC)CCCC=CCCC[C@@](C)(C(=O)N[C@@H](CC(C)C)C(=O)N[C@@H](CC(N)=O)C(=O)N[C@@H](C)C(=O)N[C@@H](CCC(N)=O)C(=O)N[C@@H](Cc2ccc(O)cc2)C(N)=O)NC(=O)[C@H](CC(=O)O)NC(=O)[C@H](C)NC1=O [PUMA SAHB] (H-QWAREIGAQLR[S5][Nle]AD[S5]LNAQY-NH2; staple 12-16; C-terminus assumed) | eliminated
